# From PubChem BioAssay (NCI)
#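 Values below derive from 48-hour exposures of cells grown in 96-well plates, with endpoints linearly interpolated between the two concentrations bracketing the appropriate inhibition level. The concentration for full growth arrest is given as TGI.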 Where a SMILES comes first, the peptide text is derived from it. [ ]: non-standard residue; d: D form. The star is where a group is joined. ξ: configuration not given here. NMeF = CN[CH](Cc1ccccc1)C(=O)O; ξNMe2Val = CC(C)C(C(=O)*)N(C)C; NMeV = CN[CH](C(=O)O)C(C)C; ξNMeV = CNC(C(=O)O)C(C)C; Boc = CC(C)(C)OC(=O)*; OBn = c1ccc(CO*)cc1; OtBu = CC(C)(C)O*
# Assays:
# Assay in all cases: NCI anticancer screen, dose series, 48 h
# A498 renal = test system: A498 renal
# HT29 colon = test system: HT29 colon
# LOX IMVI melanoma = test system: LOX IMVI melanoma
# RPMI-8226 leukemia = test system: RPMI-8226 leukemia
# SF-268 CNS = test system: SF-268 CNS
# SF-295 CNS = test system: SF-295 CNS
# SR leukemia = test system: SR leukemia
# TK-10 renal = test system: TK-10 renal
# UACC-257 melanoma = test system: UACC-257 melanoma
# MDA-MB-435 = test system: MDA-MB-435
# MDA-N = test system: MDA-N
Compound,TGI (A498 renal) [µM],TGI (HT29 colon) [µM],TGI (LOX IMVI melanoma) [µM],TGI (RPMI-8226 leukemia) [µM],TGI (SF-268 CNS) [µM],TGI (SF-295 CNS) [µM],TGI (SR leukemia) [µM],TGI (TK-10 renal) [µM],TGI (UACC-257 melanoma) [µM],TGI (MDA-MB-435) [µM],TGI (MDA-N) [µM]
CC(C)C(C(=O)N(C)[C@H](C(=O)N1CCC[C@H]1C(=O)N(C)[C@@H](Cc1ccccc1)C(=O)OCc1ccccc1)C(C)C)N(C)C(=O)[C@@H](NC(=O)OC(C)(C)C)C(C)C (stereo partly specified) (Boc-V[ξNMeV][NMeV]P[NMeF]-OBn),> 31.6,> 31.6,> 31.6,> 31.6,> 31.6,> 31.6,> 31.6,> 31.6,> 31.6,,
CCCCCCCCCCCC[N+]12CC[N+](C)(CC1)CC2,,51.4,43,41.7,53.3,> 100,26.7,5.6,> 100,,
COc1ccc(C2=NNC(=O)c3ccccc3N2c2nc(-c3cccs3)nc3cc(OC)c(OC)cc23)cc1,10.5,,,> 100,> 100,9.9,> 100,21,88.2,13.6,
O=c1[nH]c2ccc(CC(=S)N3CCOCC3)cc2o1,> 100,> 100,> 100,,> 100,> 100,> 100,> 100,> 100,> 100,
CCOC(=O)N1CCC2(CC1)C[C@@](C(C)=O)(c1ccccc1)C(C)O2 (stereo partly specified),> 100,> 100,> 100,> 100,> 100,> 100,,> 100,> 100,> 100,> 100
COc1cccc(OC)c1NC(=O)C(=O)Nn1c(NNC(=O)c2ccncc2)nc2ccccc2c1=O,> 100,> 100,> 100,> 100,> 100,> 100,,> 100,> 100,> 100,> 100
CC(=O)OCC1OC(n2c(=S)n(-c3ccccc3)c(=O)c3cc(Br)ccc32)C(OC(C)=O)C1OC(C)=O (stereo unspecified),> 100,> 100,> 100,> 100,> 100,> 100,,,> 100,,
CC(C)(C)OC(=O)N1N=CCC1c1ccccc1 (stereo unspecified),> 100,> 100,> 100,> 100,> 100,> 100,> 100,> 100,> 100,> 100,
Cc1ccc(Nc2nc(-c3ccc(-c4ccc([N+](=O)[O-])cc4)o3)cs2)cc1,,> 100,> 100,> 100,> 100,> 100,> 100,> 100,90,,
O=c1[nH]cnc2c1cnn2Cc1cnnn1COCCO,> 100,> 100,> 100,,> 100,> 100,,> 100,> 100,90.5,
CC(=O)Nc1ccc(/C=c2\sc3nnc(-c4cccnc4)n3c2=O)cc1,> 100,34.5,30.7,,60,> 100,46.7,57.3,49,,
O=c1/c(=C/c2ccccn2)sc2nc3cc4c(cc3n12)OCCO4,> 100,> 100,> 100,> 100,> 100,> 100,,> 100,> 100,> 100,> 100
O=S(=O)(/N=C(\NO)Nc1ccc(Cl)cc1)c1cc2ccccc2s1,,35,33.5,,29.2,41,,41.1,49.9,36.9,36.6
Cc1cc(C)c2c(n1)S(=O)(=O)N(CCCN1CCN(c3cccc(Cl)c3)CC1)/C(=C(\O)c1ccc(Br)cc1)C2=O,> 100,98.8,> 100,,> 100,86,> 100,60.8,45.3,78.8,
O=C(NC1C/C(=N/O)c2c(Br)sc(Br)c21)C(F)(F)F (stereo unspecified),57.8,> 100,> 100,,> 100,> 100,,> 100,72.3,> 100,> 100
O=C(NC1=C(Cl)C(=O)c2ccccc2C1=O)C(=O)C(C(=O)c1ccc2ccccc2c1)C1OC(=O)c2ccccc21 (stereo unspecified),18.4,17.7,11.2,26.2,29.6,14.9,29.4,65.1,5.48,3.33,
CC(C)C(C(=O)N(C)C(Cc1ccccc1)C(=O)N(C)C(C(=O)N(C)C(C(=O)N1CCCC1C(=O)OC(C)(C)C)C(C)C)C(C)C)N(C)C (stereo unspecified) (ξNMe2Val-[NMeF][NMeV][NMeV]P-OtBu; configuration not given here),,> 100,55.5,> 100,> 100,> 100,> 100,> 100,> 100,,
COc1ccc(NC(=O)C(=O)Cc2ccc([N+](=O)[O-])c([N+](=O)[O-])c2CC(=O)C(=O)Nc2ccc(OC)cc2OC)c(OC)c1,> 100,> 100,> 100,> 100,> 100,> 100,> 100,> 100,> 100,,
CN(C)CCC[N+]1=Nc2cccc3cccc(c23)N1,92.6,> 100,> 100,47.3,> 100,> 100,35.5,> 100,> 100,,
Cc1nn2c(c1C#N)NNc1c-2sc(=N)nnc1=O,,> 100,,> 100,> 100,> 100,> 100,> 100,,,
Cc1ccc(NC(=O)C2C3CCC(O3)C2C(=O)O)cc1 (stereo unspecified),> 75.7,> 64.2,> 54.8,> 68.8,> 73.2,> 100,43.6,> 100,> 100,,
N#COc1ccc(Oc2ccc(OC#N)cc2)cc1,> 100,> 100,33.9,> 100,> 100,> 100,50.1,> 100,> 100,,
